The values below come from publication PMC5515982, “Hair analysis for the biomonitoring of pesticide exposure: comparison with blood and urine in a rat model” (Archives of Toxicology, 2016).

Structures are written as SMILES. Values joined by “and” are separate entries in the source; they are usually repeats but may differ in a detail not shown here. Identical values can stand only once.

Data set [1] can be described thus: Concentration of pesticides and metabolites in plasma of rats after 90-day gavage exposure to a pesticide mixture. The data set is classed as in vivo, rat. As to conditions: for Slope (linear fit), concentration in plasma versus level of exposure: exposure expressed as mg/kg per day, concentration as ng/mL, detected values only. How it is done:
(§1) Eight rats were randomly assigned to each of the experimental groups. A low-calorie water gel that contained the pesticides was administered via gavage to these rats three times per week for 90 days. The doses of the pesticides mixture used for exposure were 4, 10, 20, 40, 100, 200, and 400 µg/kg of body weight. The exposure range was set as follows: The lowest dose was the lowest level allowing the detection of pesticides in hair after a 90-day exposure, based on preliminary experiments not detailed here. Testing lower levels would not have been relevant because some compounds would not be detected anymore (analytical limitation). In addition, for some other compounds, no differences were detected in the current experiment between the lowest level of exposure and the background exposure of the controls. The highest dose was set according to toxicity of compounds, which corresponded to 1/20 of the lowest LD50 (carbofuran). The animals were weighed before each administration in order to adapt the amount of pesticide-containing mixture to the animals’ weight.
(§2) The animals were shaved before the experiment began to ensure that the hair collected at the end of the study accurately reflected the 90-day period of exposure. White and black hairs were collected separately, placed in aluminum foil, and stored at −20 °C until analysis. Blood was collected in EDTA tube from the tail vein, 3 h after oral administration on Day 90. Each sampling (500–750 µL) was immediately centrifuged at 5000×g for 3 min at room temperature, and plasma was separated and stored at −80 °C before analysis. For urine collection, the rats were placed in individual metabolic cages (Type 304 stainless steel, Techniplast, Zwaag, Netherlands) immediately after gavage for 24 h (from Day 88 to Day 89). The urine was collected in refrigerated tubes over a 24-h period and was weighed before storage at −20 °C.
(§3) Depending on the compounds, only parent pesticides, only metabolites, or both parent and metabolites were analyzed in the biological matrices. The chemicals were analyzed as previously described (Chata et al. [2016]; Hardy et al. [2015]). Despite the different nature of the biological matrices analyzed (liquid vs. solid), method protocols were developed to ensure similarity so they could be reliably compared to the information obtained from each matrix, thereby ensuring that differences were not likely attributable to analytical bias. […] Because analytical background noise was absent from the chromatograms because tandem mass spectrometry was used, the approaches based on background noise for determining the limit of detection (LOD) were not applicable. The LOD was therefore determined as the lowest concentration that was detected in the samples analyzed during this study. Selectivity was ensured by analyte retention time and by the quantification transition to confirmation transition ratio that had to be lower than the 20% difference from the ratio obtained with standard compounds. The LOD ranged from 0.02 pg/mg for β-endosulfan to 2.7 pg/mg for dichlorodiphenyltrichloroethane (p,p′-DDT) in hair, from 0.2 pg/mL for trifluralin to 13.6 ng/mL for 2-isopropoxyphenol (2-IPP) in urine, and from 2.4 pg/mL for β-endosulfan to 679 pg/mL for p,p′-DDT in plasma. Because the analysis of parent pesticides and metabolites was conducted on the same hair sample, the addition of parent organophosphate isotope-labeled analog standards was not possible because their degradation into non-labeled dialkyl phosphate (DAP) during the analytical procedure would have hindered the analysis of DAP due to exposure. In hair, only organophosphate metabolites (not parents) were therefore quantified, and only qualitative results were obtained for parents.
(§4) The association between the level of exposure and the analyte concentration in the matrix (i.e., hair, urine, and plasma) was assessed by the Pearson product-moment correlation coefficient (R Pearson). […]

For data set [2] the following is noted: ref Timchalk et al. [2007], cited from earlier work.
Data set [3] can be described thus: Influence of hair pigmentation: concentration in white hair versus pigmented hair. The following applies: slope close to 1 = poor influence of pigmentation. The data set is classed as in vivo, rat. How it is done:
as §2
The influence of hair pigmentation on pesticide incorporation was assessed by comparing the concentration detected in white hair versus pigmented hair which were collected and analyzed separately from each animal. […] For the majority of the chemicals tested during the current study, pigmentation seemed to have a very limited effect on the concentration in hair, and only few compounds seemed to be pigmentation sensitive.

The nature of data set [4]: Concentration of pesticides and metabolites in 24-h urine of rats after 90-day gavage exposure to a pesticide mixture. As to conditions: for Slope (linear fit), concentration in urine versus level of exposure: exposure expressed as mg/kg per day, concentration as ng/mL, detected values only; for Concentration range in urine (detection): ND = not detected, whatever the level of exposure. The format is in vivo, rat. How it is done:
as §1, §2, §3, §4

Data set [5] in a line: Concentration of pesticides and metabolites in hair of rats after 90-day gavage exposure to a pesticide mixture. The format is in vivo, rat. The following applies: for Slope (linear fit), concentration in hair versus level of exposure: exposure expressed as mg/kg per day, concentration as pg/mg, detected values only. How it is done: as §1, §2, §3, §4

Consider `CCOP(=S)(OCC)Oc1nc(Cl)c(Cl)cc1Cl` [Chlorpyrifos], for which the figures for the “Mean concentration in plasma” value in data set [1] (control group) and in data set [1] (most exposed group) were 0.15 ± 0.01 ng/mL and 0.41 ± 0.09 ng/mL, respectively. For the same compound, in data set [1] (plasma), the “Slope (linear fit), concentration in plasma versus level of exposure” value (from here on “Slope … in plasma versus level of exposure”) turned out to be 1.24. Besides, in data set [2], the “Metabolization of the parent compound” value was 0.2 h.

Take `CCOP(=O)(O)OCC` [DEP, diethyl phosphate]: the “Slope, concentration in white hair versus pigmented hair” value in data set [3] is reported as 0.892. The “Half-life for α-phase in rat blood” value in data set [2] (after oral dosing of chlorpyrifos) is 12 min. Besides, the “Slope (linear fit), concentration in urine versus level of exposure” value (from here on “Slope … in urine versus level of exposure”) in data set [4] is recorded as 2.0 E + 06. Further, in data set [5], the “Slope (linear fit), concentration in hair versus level of exposure” value (“Slope … in hair versus level of exposure” below) is on record as 4.54.

For `ClC1=C(Cl)[C@]2(Cl)[C@@H]3[C@@H]4C[C@@H]([C@H]5O[C@@H]45)[C@@H]3[C@@]1(Cl)C2(Cl)Cl` [Dieldrin], in data set [3], the “Slope, concentration in white hair versus pigmented hair” value stood at 1.000. The “Slope … in plasma versus level of exposure” value in data set [1] (plasma) came to 305. In addition, in data set [4], the “Slope … in urine versus level of exposure” value is listed as 2 069. Also, in data set [5], the “Slope … in hair versus level of exposure” value amounted to 427.8.

In the case of `O=C(Nc1ccc(F)cc1F)c1cccnc1Oc1cccc(C(F)(F)F)c1` [Diflufenican], the “Slope, concentration in white hair versus pigmented hair” value in data set [3] is 0.937. The “Slope … in plasma versus level of exposure” value in data set [1] (plasma) is 15.2. Besides, in data set [4], the “Exposure level from which detected in urine” value (“Exposure level … in urine” below) came to 20 µg/kg and the “Slope … in urine versus level of exposure” value came out at 99. Further, the “Slope … in hair versus level of exposure” value in data set [5] was determined as 35.94.

On to `N#Cc1nn(-c2c(Cl)cc(C(F)(F)F)cc2Cl)c(N)c1S(=O)(=O)C(F)(F)F` [Fipronil sulfone], for which the “Slope, concentration in white hair versus pigmented hair” value in data set [3] stood at 1.114. Moreover, in data set [1] (plasma), the “Slope … in plasma versus level of exposure” value worked out at 976. In addition, in data set [4], the “Slope … in urine versus level of exposure” value is reported as 10 650. Moreover, in data set [5], the “Slope … in hair versus level of exposure” value turned out to be 772.

With `CC(C)Oc1cc(-n2nc(C(C)(C)C)oc2=O)c(Cl)cc1Cl` [Oxadiazon], the “Slope, concentration in white hair versus pigmented hair” value in data set [3] is 0.860. The “Slope … in plasma versus level of exposure” value in data set [1] (plasma) came out at 38.5. For the same compound, the “Concentration range in urine (detection)” value in data set [4] was “not detected”. Further, in data set [5], the “Slope … in hair versus level of exposure” value amounted to 11.45.

For `Oc1c(Cl)c(Cl)c(Cl)c(Cl)c1Cl` [Pentachlorophenol], the “Slope, concentration in white hair versus pigmented hair” value in data set [3] was 0.705. Besides, in data set [1] (plasma), the “Slope … in plasma versus level of exposure” value turned out to be 2039. Further, the “Slope … in urine versus level of exposure” value in data set [4] is 82 841. Moreover, in data set [5], the “Slope … in hair versus level of exposure” value was found to be 169.0.

As for `CCCC1COC(Cn2cncn2)(c2ccc(Cl)cc2Cl)O1` (stereo not shown) [Propiconazole], the “Slope, concentration in white hair versus pigmented hair” value in data set [3] was determined as 0.825. In addition, the “Concentration range in plasma (detection)” value in data set [1] (ND = not detected, whatever the level of exposure) is on record as “not detected”. Moreover, in data set [4], the “Concentration range in urine (detection)” value is on record as “not detected”. Moreover, the “Slope … in hair versus level of exposure” value in data set [5] is listed as 6.47.

Turning to `Oc1nc(Cl)c(Cl)cc1Cl` [TCPy, 3,5,6-trichloro-2-pyridinol], in data set [3], the “Slope, concentration in white hair versus pigmented hair” value stood at 0.435. For the same compound, the “Slope … in plasma versus level of exposure” value in data set [1] (plasma) came to 109. Besides, the “Slope … in urine versus level of exposure” value in data set [4] is on record as 2.5 E + 06. Besides, the “Slope … in hair versus level of exposure” value in data set [5] was 85.6.

As to `CCCN(CCC)c1c([N+](=O)[O-])cc(C(F)(F)F)cc1[N+](=O)[O-]` [Trifluralin], the “Slope, concentration in white hair versus pigmented hair” value in data set [3] is 0.688. In addition, the “Slope … in plasma versus level of exposure” value in data set [1] (plasma) was determined as 1.57. Besides, the “Slope … in urine versus level of exposure” value in data set [4] is on record as 4. For the same compound, the “Slope … in hair versus level of exposure” value in data set [5] is 1.107; in data set [5] (listed as trifluralin), 1.11.

As to `Clc1ccc(C(c2ccc(Cl)cc2)C(Cl)Cl)cc1` [p,p′-DDD, p,p′-dichlorodiphenyldichloroethane], in data set [3], the “Slope, concentration in white hair versus pigmented hair” value was 0.673. Further, in data set [1] (plasma), the “Exposure level from which detected in plasma” value is on record as 40 µg/kg and the “Slope … in plasma versus level of exposure” value was 13.1. Besides, in data set [4], the “Concentration range in urine (detection)” value is “not detected”. Further, in data set [5], the “Exposure level from which detected in hair” value was determined as 40 µg/kg per day and the “Slope … in hair versus level of exposure” value was found to be 24.0.

For the compound `ClC(Cl)=C(c1ccc(Cl)cc1)c1ccc(Cl)cc1` [p,p′-DDE, p,p′-dichlorodiphenyldichloroethylene], the “Slope, concentration in white hair versus pigmented hair” value in data set [3] was 1.287. For the same compound, in data set [1] (plasma), the “Slope … in plasma versus level of exposure” value is 289. Moreover, in data set [4], the “Exposure level … in urine” value came to 200 µg/kg. Moreover, the “Slope … in hair versus level of exposure” value in data set [5] turned out to be 273.5.

For the compound `Clc1ccc(C(c2ccc(Cl)cc2)C(Cl)(Cl)Cl)cc1` [p,p′-DDT, dichlorodiphenyltrichloroethane], the “Slope, concentration in white hair versus pigmented hair” value in data set [3] turned out to be 0.876. The “Slope … in plasma versus level of exposure” value in data set [1] (plasma) was 175. For the same compound, the “Exposure level … in urine” value in data set [4] came out at 200 µg/kg. Further, in data set [5], the “Exposure level from which detected in hair” value turned out to be 20 µg/kg per day and the “Slope … in hair versus level of exposure” value is 184.7.

As to `O=S1OC[C@@H]2[C@H](CO1)[C@]1(Cl)C(Cl)=C(Cl)[C@]2(Cl)C1(Cl)Cl` (stereo partly drawn) [β-Endosulfan, β-endosulfan], the “Slope, concentration in white hair versus pigmented hair” value in data set [3] is listed as 0.965. Besides, the “Slope … in plasma versus level of exposure” value in data set [1] (plasma) was 1.50. The “Concentration range in urine (detection)” value in data set [4] is given as “not detected”. Also, in data set [5], the “Slope … in hair versus level of exposure” value is reported as 2.71.

For `Cl[C@H]1[C@H](Cl)[C@@H](Cl)[C@H](Cl)[C@@H](Cl)[C@@H]1Cl` [β-HCH, β-hexachlorocyclohexane], in data set [3], the “Slope, concentration in white hair versus pigmented hair” value was found to be 1.021. Also, the “Slope … in plasma versus level of exposure” value in data set [1] (plasma) is 199. Also, the “Slope … in urine versus level of exposure” value in data set [4] is 6 297. Further, the “Slope … in hair versus level of exposure” value in data set [5] was 612 and 612.6.

For the compound `Cl[C@H]1[C@H](Cl)[C@@H](Cl)[C@@H](Cl)[C@H](Cl)[C@H]1Cl` [γ-HCH, γ-hexachlorocyclohexane], the “Slope, concentration in white hair versus pigmented hair” value in data set [3] was 0.969. Besides, in data set [1] (plasma), the “Slope … in plasma versus level of exposure” value is 47.2. For the same compound, in data set [4] (dosage of 200 µg/kg, one animal, not presented in Fig. 1), the “Concentration in urine, single point out of scale” value amounted to 9 ng/mL. Moreover, the “Slope … in urine versus level of exposure” value in data set [4] was 5 715. The “Slope … in hair versus level of exposure” value in data set [5] worked out at 119.8.
